Measurements: US11529319B2, “Methods and compositions for treating neurological conditions” (priority 2017, dated 2022)
Entries after “also recorded” stand apart in the source; their conditions may differ.

Tests used:
[1] = test system: Mef2c-het mice; experiment: Hole-board exploration test; assay type: in vivo, mouse; conditions: chronic treatment
Source text: (§1) Mef2c heterozygous knockout (Mef2c-het) mice were created by crossing mice carrying the conventional exon 2-deleted allele of Mef2c (Mef2c^Δ2) with their WT littermates. All procedures for maintaining and using these mice were approved by the Institutional Animal Care and Use Committee (IACUC) at the Sanford Burnham Prebys Medical Discovery Institute. In this study, only male mice were used for the behavioral assays to insure uniformity (either with or without drug treatment). Chronic treatment with memantine, NitroSynapsin (both at 4.6 μmol/kg body weight) or vehicle (PBS) was administered via i.p. injection, twice a day for at least 3 months, starting at ˜2.5 weeks of age. This age was chosen because mice are still juveniles and thus treatment could begin in human at an equivalent stage.
The apparatus consisted of a Plexiglas cage (32×32×30 cm) with 16 holes in a format of 4×4 (each 3 cm in diameter) equally spaced on an elevated floor. The explorative activity including the number of head-dips and the time spent head-dipping were measured for 5 min.

[2] = test system: Mef2c-het mice; experiment: Motor behavioral tests and paw clasping; assay type: in vivo, mouse; conditions: 3-month treatment
Source text: as §1, with “This age was chosen because mice are still juveniles and thus treatment could begin in human at an equivalent stage.” left out
Balance was measured by the latency to fall off the elevated (40 cm) horizontal rod (50 cm long) in four 20 sec trials. […] Traction capacity was measured over three 5 s trials as the ability of the animal to raise the hind limbs while remaining suspended by the forepaws grasped around an elevated horizontal bar (2 mm diameter). […] Muscle Strength was determined by one trial of 60 s in which the mice were placed in the middle of the horizontal bar in an upside-down position and the latency until falling down was measured. […] The latency to turn downward and the total time to descend to the floor over 3 trials was recorded.

[3] = test system: Mef2c-het mice; experiment: Three-chamber social interaction test; assay type: in vivo, mouse
Source text: as §1
This test was originally developed by the Crawley group for an animal model of autism. Autistic individuals show aberrant reciprocal social interaction, including low levels of social approach and unusual modes of interaction. A social interaction apparatus consisting of a rectangular, three chambered Plexiglas box, with each chamber measuring 20 cm (length)×40.5 cm (width)×22 cm (height) was used. Walls dividing the chamber were clear with small semicircular openings (3.5 cm radius), allowing access into each chamber. The middle chamber was empty and the two outer chambers contained small, round wire cages (Galaxy Cup, Spectrum Diversified Designs, Inc., Streetsboro, Ohio). The mice were habituated to the entire apparatus for 5 min. To assess social interaction, mice were returned to the middle chamber, this time with a stranger mouse (C57BL/6J of the same sex tethered to the wire cage). Time spent in the chamber with the stranger mouse and time spent in the empty wire cage-containing chamber were each recorded for 5 min, as was the number of entries into each chamber. Experimental mice were tested once, and the stranger C57BL/6J mice were used for up to 6 tests.

[4] = test system: Mef2c-het mice; conditions: mouse, in vivo
Source text: as §1, with “stage. […]” for “stage.”
For extracellular field recordings, concentric, bipolar tungsten electrodes were used to activate Schaffer collateral/commissural (SC) fibers in the hippocampal CA1 region. […] For baseline recordings, slices were stimulated at 0.033 Hz for 20 min at stimulation intensities of 30-40% of those used to elicit the largest measured fEPSP amplitude. […] Data were sampled at 5 kHz and analyzed using the Clampfit 10 program (Molecular Devices).
Synaptic activity was recorded from dentate gyrus (DG) granule neurons using the whole-cell voltage-clamp technique. […]

[5] = test system: Mef2c-het mice; experiment: Morris water maze (spatial learning and memory); assay type: in vivo, mouse
Source text: as §1
We tested spatial reference learning and memory using a version of the conventional Morris water maze. The mice were trained to swim to a platform 14 cm in diameter and submerged 1.5 cm beneath the surface of the water. The platform was invisible to the mice while swimming. […] Mice were given 4 trials a day for as many days as necessary to reach the criterion (<20 s mean escape latency). Retention of spatial training was assessed 24 h after the last training trial. Both probe trials consisted of a 60-s free swim in the pool without the platform. The ANY-maze video tracking system (Stoelting Co.) was used to videotape all trials for automated analysis.

CCC12CC3(N)CC(CC)(C1)CC(O[N+](=O)[O-])(C3)C2 [NitroSynapsin]
head-dips per hole (repetitive behavior) [1]: corrected the abnormal repetitive behavior
paw clasping [2]: did not improve the paw clasping phenotype; also recorded: not rescued
social ability: time in chambers, number and duration of visits ([3]; Mef2c-het mice, chronic treatment): improved this abnormal social behavior; also recorded: rescued aberrant social ability
number of social visits (S1 minus E), NitroSynapsin vs equimolar memantine ([3]; Mef2c-het mice, head-to-head comparison): demonstrated the superiority of NitroSynapsin; also recorded: significantly greater than that of memantine (M)-treated mice
social behavior of WT mice ([3]; WT mice, 3-month treatment): did not significantly alter the social behavior of WT mice
effect on EPSCs in WT mice [4]: no effects
effect on LTP in WT mice [4]: no effects
latency of finding hidden platform during training sessions ([5]; Mef2c-het mice, 4.6 μmol/kg i.p. twice a day, 3 months): improved performance relative to vehicle
probe test, time in target vs opposite quadrant (memory retention) ([5]; Mef2c-het mice, 4.6 μmol/kg i.p. twice a day, 3 months, 24 h after last training): normalized memory function; also recorded: rescued this effect
effect on Morris water maze in WT mice ([5]; WT mice, 3-month treatment): no effects
